Experiments:
Format in all cases: cell-based
[1] = test system: Zymoseptoria tritici (Septoria tritici); experiment: Fungicidal activity against Zymoseptoria tritici (Septoria tritici) (leaf blotch), liquid culture in PDB, 96-well microtiter plate
Procedure: (§1) Fungicidal activity against Zymoseptoria tritici (Septoria tritici) (leaf blotch) Conidia of the fungus from cryogenic storage were directly mixed into nutrient broth (PDB potato dextrose broth). A DMSO solution of the test compounds was placed into a microtiter plate (96-well format) and the nutrient broth containing the fungal spores was added to it. The test plates were incubated at 24° C. and after 72 hours the fungal growth was assessed visually and compared to the growth in untreated wells. The scores were recorded as % control compared to the untreated wells. The action to be expected E for a given active ingredient combination was calculated using the COLBY formula as follows: • ppm=milligrams of active ingredient (=a.i.) per liter of spray mixture • X=% action by active ingredient (A) using p ppm of active ingredient • Y=% action by active ingredients (B+C) using q ppm of active ingredient. According to COLBY, the expected (additive) action of active ingredients (A)+(B+C) using p+q ppm of active ingredient is: [formula]

[2] = test system: Glomerella lagenarium (Colletotrichum lagenarium); experiment: Fungicidal activity against Glomerella lagenarium (Colletotrichum lagenarium) liquid culture/cucumber/preventative (Anthracnose)
Procedure: as §1, with “Glomerella lagenarium (Colletotrichum lagenarium) liquid culture/cucumber/preventative (Anthracnose)” for “Zymoseptoria tritici (Septoria tritici) (leaf blotch)”

[3] = test system: Mycosphaerella arachidis Syn. Cercospora arachidicola; experiment: Fungicidal activity against Mycosphaerella arachidis syn. Cercospora arachidicola (brown leaf spot), liquid culture in PDB, 96-well microtiter plate
Procedure: as §1, with “Activity Against Mycosphaerella arachidis Syn. Cercospora arachidicola (Brown Leaf Spot)” for “activity against Zymoseptoria tritici (Septoria tritici) (leaf blotch)”, “5 days” for “72 hours”

CO/C=C(\Oc1cc(C2CCCCC2)ccc1C)C(=O)OC [Compound X.04, methyl (Z)-2-(5-cyclohexyl-2-methyl-phenoxy)-3-methoxy-prop-2-enoate]
% control Score ([1]; X.04 0.02 ppm): 0%
% control Score ([1]; X.04 0.02 ppm alone): 0%
% control Score ([1]; X.04 0.02 ppm, Table B2): 0%
% control Score ([1]; X.04 0.07 ppm): 0%
% control Score ([1]; X.04 0.07 ppm alone): 0%
% control Score ([1]; X.04 0.07 ppm, Table B2): 0%
% control Score ([1]; X.04 0.2 ppm): 0%
% control Score ([1]; X.04 0.2 ppm alone): 0%
% control Score ([1]; X.04 0.2 ppm, Table B2): 0%
Zymoseptoria tritici % control Score ([1]; ppm: X.04 0.02): 0%
Zymoseptoria tritici % control Score ([1]; ppm: X.04 0.07): 0%
Zymoseptoria tritici % control Score ([1]; ppm: X.04 0.2): 0%
% control Score ([2]; X.04 0.02 ppm): 0%
% control Score ([2]; X.04 0.02 ppm alone): 0%
% control Score ([2]; X.04 0.02 ppm, Table B2): 0%
% control Score ([2]; X.04 0.07 ppm): 70%
% control Score ([2]; X.04 0.07 ppm alone): 70%
% control Score ([2]; X.04 0.07 ppm, Table B2): 70%
% control Score ([2]; X.04 0.2 ppm): 100%
% control Score ([2]; X.04 0.2 ppm alone): 100%
% control Score ([2]; X.04 0.2 ppm, Table B2): 100%
Colletotrichum lagenarium % control Score ([2]; ppm: X.04 0.02): 0%
Colletotrichum lagenarium % control Score ([2]; ppm: X.04 0.07): 70%
Colletotrichum lagenarium % control Score ([2]; ppm: X.04 0.2): 100%
% control Score ([3]; X.04 0.02 ppm): 70%
% control Score ([3]; X.04 0.02 ppm alone): 70%
% control Score ([3]; X.04 0.02 ppm, Table B2): 70%
% control Score ([3]; X.04 0.07 ppm): 70%
% control Score ([3]; X.04 0.07 ppm alone): 90%
% control Score ([3]; X.04 0.07 ppm, Table B2): 90%
% control Score ([3]; X.04 0.2 ppm): 70%
% control Score ([3]; X.04 0.2 ppm alone): 90%
% control Score ([3]; X.04 0.2 ppm, Table B2): 90%
Mycosphaerella arachidis % control Score ([3]; ppm: X.04 0.02): 70%
Mycosphaerella arachidis % control Score ([3]; ppm: X.04 0.07): 90%
Mycosphaerella arachidis % control Score ([3]; ppm: X.04 0.2): 90%

— patent publication US20260101893A1, “FUNGICIDAL COMPOSITIONS” (SYNGENTA CROP PROTECTION AG, priority 2022, published 2026)
